Results as given in patent US7842701B2, “Pyrazoloquinolone derivative and use thereof” (Takeda Pharmaceutical Company Limited, priority 2004, dated 2010).

What follows are compounds tested against T1, Src tyrosine kinase (p60^c-src) (Homo sapiens, UniProt P12931) (assay: Src tyrosine kinase inhibition (α-screen phosphotyrosine assay)). Settings: 30 ng/ml p60^c-src, 100 ng/ml biotin-labeled poly(Glu:Tyr=4:1), 2 μM ATP, room temperature 10 minutes; value given only as order of magnitude; read-out: IC50 (concentration required for 50% inhibition of the enzyme activity).
T1 construct: purchased Upstate Biotechnology, Inc
Type: biochemical
Protocol: Inhibition activity of the test compound for Src tyrosine kinase was measured by the method described as below. p60^c-src (a preparation purified partically, purchased from Upstate Biotechnology, Inc.) was usded as an enzyme. A biotin-labeled polypeptide (co-polymer of glutamic acid and tyrosine, glutamic acid:tyrosine=4:1, purchased from Nihon Schering K. K. (Japan), prepared by CIS Bio International) was used as a substrate. A solution having composition of 50 mM Tris-HCl (pH 7.5), 5 mM of MgCl2, 5 mM of MnCl2, 2 mM of dithiothreitol, 0.01% of Tween-20 was used as a buffer solution for measuring the activity of tyrosine-kinase. The amount of phosphorylation of tyrosine in the substrate after the reaction was measured by the method using phosphotyrosine recognition antibody. In the concrete, α-screen phosphotyrosine (p-tyr-100) assay kit (manufactured by PerkinElmer, Inc.) was used. Fusion™ (manufactured by PerkinElmer, Inc.) was used as a plate reader. The test compound was dissolved in dimethylsulfoxide, and diluted with the above-mentioned buffer solution for measuring the activity of tyrosine-kinase. To 5 μl of the solution of test compound was added 10 μl of a buffer solution containing 75 ng/ml of the enzyme (p60 ^c-src) and 250 ng/ml of the substrate (biotin-labeled polypeptide), and then added 10 μl of a buffer solution containing 5 μM ATP, and then the tyrosine-kinase reaction was initiated. Accordingly the tyrosine-kinase reaction was meant by a kinase reaction in a solution containing the test compound having designated concentration, 30 ng/ml of p60^c-src, 100 ng/ml of polypeptide, 2 μM of ATP, 50 mM of Tris-HCl (pH 7.5), 5 mM of MgCl2, 5 mM of MnCl2, 2 mM of dithiothreitol and 0.01% of Tween-20, and the amount of the reaction liquid was 25 μl. After the reaction was continued at room temperature for 10 minutes, the kinase reaction was terminated by adding 25 μl of a solution containing 100 mM of EDTA-2 sodium salt (Ethylene Diamine Tetraacetic Acid, disodium salt), 62.5 mM of HEPES (pH 7.4), 250 mM of NaCl, 0.1% of Bovine Serum Albumin, 10 μg/ml of streptavidine donor beads for α-screen assay, 10 μg/ml of acceptor beads binding anti-phosphotyrosin recognition antibody PY-100 for α-screen assay (Anti-phosphotyrisine(P-Tyr-100) Acceptor beads), and then the binding reaction between phosphotyrosine recognition antibody and phosphorylating tyrosine was continued at room temperature for 16 hours, and then the amount of tyrosine phosphorylation was measured by using plate reader Fusion™.
Inhibition rate (%)=100-[(count of the test compound-blank)/(control-blank)]×100 […]

T1 sequence (P12931 whole entry): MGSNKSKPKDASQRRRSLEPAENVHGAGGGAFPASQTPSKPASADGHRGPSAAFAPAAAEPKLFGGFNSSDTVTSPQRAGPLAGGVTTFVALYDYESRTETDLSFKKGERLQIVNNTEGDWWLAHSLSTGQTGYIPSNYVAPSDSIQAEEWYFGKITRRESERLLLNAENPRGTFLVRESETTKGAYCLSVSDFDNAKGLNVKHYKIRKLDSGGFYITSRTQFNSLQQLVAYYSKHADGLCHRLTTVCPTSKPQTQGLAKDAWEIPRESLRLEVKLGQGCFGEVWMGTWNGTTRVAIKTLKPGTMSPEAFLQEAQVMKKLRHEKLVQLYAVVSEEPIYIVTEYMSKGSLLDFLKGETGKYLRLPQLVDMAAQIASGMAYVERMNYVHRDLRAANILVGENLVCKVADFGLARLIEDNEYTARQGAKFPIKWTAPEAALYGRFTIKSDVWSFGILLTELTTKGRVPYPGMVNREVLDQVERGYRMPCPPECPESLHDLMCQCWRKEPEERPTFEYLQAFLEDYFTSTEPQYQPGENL

| Compound | IC50 [nM] |
| --- | --- |
| Cc1ccc(O)cc1-n1nc2c(c1N)c(=O)[nH]c1ccccc12 [Example 37, 3-amino-2-(5-hydroxy-2-methylphenyl)-2,5-dihydro-4H-pyrazolo[4,3-c]quinolin-4-one] | ~1 |
| Nc1c2c(=O)[nH]c3ccccc3c2nn1-c1cc(O)ccc1Cl [Example 38, 3-amino-2-(2-chloro-5-hydroxyphenyl)-2,5-dihydro-4H-pyrazolo[4,3-c]quinolin-4-one] | ~1 |
| Nc1c2c(=O)[nH]c3cc(NCCCN4CCC(O)CC4)ccc3c2nn1-c1cccc(O)c1 [Example 61, 3-amino-2-(3-hydroxyphenyl)-7-{[3-(4-hydroxy-1-piperidinyl)propyl]amino}-2,5-dihydro-4H-pyrazolo[4,3-c]quinolin-4-one] | ~1 |
| Nc1c2c(=O)[nH]c3cc(NCCCN4CCOCC4)ccc3c2nn1-c1cccc(O)c1 [Example 62, 3-amino-2-(3-hydroxyphenyl)-7-{[3-(4-morpholinyl)propyl]amino}-2,5-dihydro-4H-pyrazolo[4,3-c]quinolin-4-one] | ~1 |
